The experiment concerns the target human PDE1B enzyme (Homo sapiens (Human), UniProt Q01064). In words: IMAP TR-FRET PDE1B enzymatic assay. It is filed as biochemical. Particulars: negative log of half-maximal molar inhibitory concentration, 200 nM FAM-cAMP, values given as bins; for IC50: read-out: PDE1b (pIC50) (converted). The procedure, abridged:
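Full-length GST-tagged human PDE1B (250 pg/well) in IMAP BSA buffer with 10 U/ml calmodulin and 2.5 mM CaCl2; compound pre-incubated 5 min at room temperature, then 200 nM (final) FAM-cAMP for 30 min. IMAP binding reagent/Tb added, 1 h; TR-FRET 520/490 ratio read. IC50 from sigmoidal dose-response fit.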
A general note: TR-FRET usually uses a lanthanide donor and a delayed reading to cut background.

Consider 4 molecules from patent US20250145633A1, “SUBSTITUTED FURANOPYRIMIDINE COMPOUNDS AS PDE1 INHIBITORS” (Dart NeuroScience, LLC, priority 2017, published 2025).

Consider `Cc1oc2ncnc(NC3(C)CC3)c2c1C(=O)N1CCc2c(ncnc2OC2CC2)C1` [Example 811, 5-{4-Cyclopropoxy-5H,6H,7H,8H-pyrido[3,4-d]pyrimidine-7-carbonyl}-6-methyl-N-(1-methylcyclopropyl)furo[2,3-d]pyrimidin-4-amine], for which the IC50 is 0.01 to 0.1 µM.

Turning to `COc1nc(C2CC2)nc2c1CCN(C(=O)c1c(C)oc3ncnc(NC4(C)CC4)c13)C2` [Example 812, 5-{2-Cyclopropyl-4-methoxy-5H,6H,7H,8H-pyrido[3,4-d]pyrimidine-7-carbonyl}-6-methyl-N-(1-methylcyclopropyl)furo[2,3-d]pyrimidin-4-amine], the “PDE1b (pIC50)” value is recorded as over 8.

As to `CCN(Cc1cc(OC)ncn1)C(=O)c1c(C)oc2ncnc(NC3(C)CC3)c12` [Example 813, N-Ethyl-N-[(6-methoxypyrimidin-4-yl)methyl]-6-methyl-4-[(1-methylcyclopropyl)amino]furo[2,3-d]pyrimidine-5-carboxamide], the IC50 was 0.1 to 1 µM.

For `Cc1nc(C)n2c1CN(C(=O)c1c(C)oc3ncnc(NC4(C)CC4)c13)CC2` [Example 814, 5-{1,3-Dimethyl-5H,6H,7H,8H-imidazo[1,5-a]pyrazine-7-carbonyl}-6-methyl-N-(1-methylcyclopropyl)furo[2,3-d]pyrimidin-4-amine], the IC50 was 0.1 to 1 µM.
